In patent US8145437B2, “System and method to obtain oligo-peptides with specific high affinity to query proteins” (priority 2005, dated 2012):

B1: prolactin (protein, UniProt P01236 29-227, looked up)
Prolactin: LPICPGGAARCQVTLRDLFDRAVVLSHYIHNLSSEMFSEFDKRYTHGRGFITKAINSCHTSSLATPEDKEQAQQMNQKDFLSLIVSILRSWNEPLYHLVTEVRGMQEAPEAILSKAVEIEEQTKRLLEGMELIVSQVHPETKENEIYPVWSGLPSLQMADEESRLSAYYNLLHCLRRDSHKIDNYLKLLKCRIIHNNNC
B2: TARGET TEMPLATE to … (GAL4 17-31AA): Target oligo template pool, 1st and 3rd codon letters reverse-complementary to Gal4 coding sequence 17-31, 2nd letter undefined (nucleic acid)
DNA: GGATCCATGANTCNTGNCANGGNCTNCTNGANGANAANTCNGTNGANATNGCNGATTCGGCCGC
modifications: listed as DNA, chemistry not fully specified; the letters are possibly those of the target site

How the values were obtained:
[1] = system: GAL4 peptide; assay: Binding of fluorescent labeled GAL4 peptide to protein extracts of monoclonal clones; details: other proteins tested even in much higher concentrations
[2] = molecular target: T1, dimerisation domain of 1HBW REGULATORY PROTEIN GAL4 (Saccharomyces cerevisiae, UniProt P04386); assay: BacterioMatch two-hybrid assay with Target Oligo Pool in pTRG vector; assay type: cell-based; details: ampicillin-resistant reporter
T1 construct: the dimerisation domain of 1HBW REGULATORY PROTEIN GAL4 inserted into pBT (as it is provided and described by Stratagene); host or cells: E. coli BacterioMatch two-hybrid reporter strain (derived from XL1-Blue MRF')
T1 sequence (P04386 50-106 limits assumed): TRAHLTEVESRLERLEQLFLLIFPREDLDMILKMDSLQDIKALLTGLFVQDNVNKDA
Protocol: The BacterioMatch™ two-hybrid system* (Stratagene, 11011 N. Torrey Pines Road La Jolla, Calif. 92037) was used to Quickly Detect Protein-Protein Interactions designed by the recent Method. It is a simple alternative or complement to yeast two-hybrid systems for in vivo detection of protein-protein interactions. Because the two-hybrid assay is performed in bacteria, results are obtained more easily and quickly than in yeast. The system is based on transcriptional activation of a primary ampicillin-resistant reporter and a secondary β-galactosidase reporter for validation. The BacterioMatch two-hybrid system is based on a methodology developed by Dove, Joung, and Hochschild of Harvard Medical School.
The BacterioMatch two-hybrid system is based on transcriptional activation (FIG. 4). A protein of interest—the bait—is fused to the full-length bacteriophage repressor protein (.lamda.cI). The corresponding target protein is fused to the amino-terminal domain of the α-subunit of RNA polymerase (RNAPα). The bait is tethered to the […] sequence upstream of the reporter promoter through the DNA-binding domain of .lamda.cI. If the bait and target interact, they recruit and stabilize the binding of RNA polymerase close to the promoter and activate the transcription of the ampicillin-resistant reporter gene in the BacterioMatch two-hybrid reporter strain. […]

Molecule	competition with binding of labeled GAL4 to the proteins from positive clones [1]	positive bacterial clones growing on double selective medium [2]
Unlabelled GAL4: unlabelled GAL4 peptide, the query, used as competitor of labeled GAL4 (ESRLERLEQLFLLIF)	inhibited	–
growth hormone	ineffective competitors	–
B1	ineffective competitors	–
B2	–	numerous positive bacterial clones
